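Following 48 hours of exposure in 96-well plates, responses at five concentrations were used to interpolate endpoints linearly. GI50 is the concentration that inhibits growth by half.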 Active and inactive are the calls of the source. Rule as the data show it: active = GI50 up to about 1.1 µM and inactive = higher.
Experiments:
Test in all cases: NCI-60 cell line screen, 48 h
[1] = system: NCI-H226
[2] = system: TK-10
[3] = system: MDA-MB-435
[4] = system: HCT-116
[5] = system: SF-268
[6] = system: U-251
[7] = system: CAKI-1
[8] = system: COLO 205
[9] = system: K562
[10] = system: OVCAR-8
[11] = system: SN12C
[12] = system: OVCAR-3
[13] = system: OVCAR-4
[14] = system: 786-0
[15] = system: MOLT-4
[16] = system: SF-539
[17] = system: SW-620
[18] = system: UACC-62
[19] = system: CCRF-CEM
[20] = system: HOP-92
[21] = system: HL-60
[22] = system: SK-OV-3
[23] = system: RPMI-8226
[24] = system: IGROV-1
[25] = system: SNB-75
[26] = system: MCF7
[27] = system: ACHN
[28] = system: RXF 393
[29] = system: MDA-N
[30] = system: HT-29
[31] = system: KM12
[32] = system: LOX IMVI
[33] = system: HOP-62
[34] = system: BT-549
[35] = system: HCT-15
[36] = system: T47D
[37] = system: M14
[38] = system: SNB-19
[39] = system: NCI-H522
[40] = system: SF-295
[41] = system: NCI-H460
[42] = system: EKVX
[43] = system: OVCAR-5
[44] = system: A549
[45] = system: Hs-578T
[46] = system: NCI-H23
[47] = system: SK-MEL-28
[48] = system: UACC-257
[49] = system: Malme-3M
[50] = system: NCI/ADR-RES
[51] = system: HCC 2998
[52] = system: DU-145
[53] = system: SK-MEL-5
[54] = system: MDA-MB-231
[55] = system: SK-MEL-2
[56] = system: UO-31
[57] = system: A498
[58] = system: SR

Compound: O=C1N/C(=N/N=C/C(O)C(O)C(O)CO)N/C1=C\c1c[nH]c2ccccc12 (centres undefined)
- GI50 [1]: > 100 µM (inactive)
- GI50 [2]: > 100 µM (inactive)
- GI50 [3]: > 100 µM (inactive)
- GI50 [4]: > 100 µM (inactive)
- GI50 [5]: > 100 µM (inactive)
- GI50 [6]: > 100 µM (inactive)
- GI50 [7]: > 100 µM (inactive)
- GI50 [8]: > 100 µM (inactive)
- GI50 [9]: > 100 µM (inactive)
- GI50 [10]: > 100 µM (inactive)
- GI50 [11]: > 100 µM (inactive)
- GI50 [12]: > 100 µM (inactive)
- GI50 [13]: > 100 µM (inactive)
- GI50 [14]: > 100 µM (inactive)
- GI50 [15]: > 100 µM (inactive)
- GI50 [16]: > 100 µM (inactive)
- GI50 [17]: > 100 µM (inactive)
- GI50 [18]: > 100 µM (inactive)
- GI50 [19]: 41.7 µM (inactive)
- GI50 [20]: > 100 µM (inactive)
- GI50 [21]: > 100 µM (inactive)
- GI50 [22]: > 100 µM (inactive)
- GI50 [23]: > 100 µM (inactive)
- GI50 [24]: > 100 µM (inactive)
- GI50 [25]: > 100 µM (inactive)
- GI50 [26]: > 100 µM (inactive)
- GI50 [27]: > 100 µM (inactive)
- GI50 [28]: > 100 µM (inactive)
- GI50 [29]: > 100 µM (inactive)
- GI50 [30]: > 100 µM (inactive)
- GI50 [31]: > 100 µM (inactive)
- GI50 [32]: > 100 µM (inactive)
- GI50 [33]: > 100 µM (inactive)
- GI50 [34]: > 100 µM (inactive)
- GI50 [35]: > 100 µM
- GI50 [36]: > 100 µM (inactive)
- GI50 [37]: > 100 µM (inactive)
- GI50 [38]: 1.93 µM (inactive)
- GI50 [39]: > 100 µM (inactive)
- GI50 [40]: > 100 µM (inactive)
- GI50 [41]: > 100 µM (inactive)
- GI50 [42]: > 100 µM (inactive)
- GI50 [43]: > 100 µM (inactive)
- GI50 [44]: > 100 µM (inactive)
- GI50 [45]: > 100 µM (inactive)
- GI50 [46]: > 100 µM (inactive)
- GI50 [47]: > 100 µM (inactive)
- GI50 [48]: > 100 µM (inactive)
- GI50 [49]: > 100 µM (inactive)
- GI50 [50]: > 100 µM (inactive)
- GI50 [51]: > 100 µM (inactive)
- GI50 [52]: > 100 µM (inactive)
- GI50 [53]: > 100 µM (inactive)
- GI50 [54]: > 100 µM (inactive)

Compound: Cc1ccc(S(=O)(=O)N2CCNCCN(S(=O)(=O)c3ccc(C)cc3)CCNCC2)cc1
- GI50 [1]: 19.3 µM (inactive)
- GI50 [2]: 18.3 µM (inactive)
- GI50 [3]: 18.1 µM (inactive)
- GI50 [4]: 15 µM (inactive)
- GI50 [5]: 21.8 µM (inactive)
- GI50 [6]: 20.2 µM (inactive)
- GI50 [7]: 27.6 µM (inactive)
- GI50 [8]: 16.4 µM (inactive)
- GI50 [9]: 14.2 µM (inactive)
- GI50 [10]: 19.2 µM (inactive)
- GI50 [11]: 29.6 µM (inactive)
- GI50 [12]: 14.2 µM (inactive)
- GI50 [55]: 19.8 µM (inactive)
- GI50 [13]: 32.2 µM (inactive)
- GI50 [14]: 18.7 µM (inactive)
- GI50 [16]: 19.1 µM (inactive)
- GI50 [17]: 35.5 µM (inactive)
- GI50 [18]: 18.8 µM (inactive)
- GI50 [56]: 19.8 µM (inactive)
- GI50 [20]: 18.7 µM (inactive)
- GI50 [21]: 10.2 µM (inactive)
- GI50 [22]: 20.4 µM (inactive)
- GI50 [24]: 19.7 µM (inactive)
- GI50 [25]: 20.2 µM (inactive)
- GI50 [26]: 27.3 µM (inactive)
- GI50 [27]: 28.9 µM (inactive)
- GI50 [28]: 2.65 µM (inactive)
- GI50 [29]: 20.2 µM (inactive)
- GI50 [30]: 14.1 µM (inactive)
- GI50 [57]: 23.2 µM (inactive)
- GI50 [31]: 20.8 µM (inactive)
- GI50 [32]: 12.5 µM (inactive)
- GI50 [33]: 16.6 µM (inactive)
- GI50 [34]: 19.1 µM (inactive)
- GI50 [35]: 32.9 µM
- GI50 [36]: 12.3 µM (inactive)
- GI50 [37]: 18.1 µM (inactive)
- GI50 [38]: 31 µM (inactive)
- GI50 [39]: 16.6 µM (inactive)
- GI50 [40]: 15.8 µM (inactive)
- GI50 [41]: 14.7 µM (inactive)
- GI50 [42]: 24 µM (inactive)
- GI50 [43]: 43.4 µM (inactive)
- GI50 [44]: 34.2 µM (inactive)
- GI50 [45]: 17.8 µM (inactive)
- GI50 [46]: 32.3 µM (inactive)
- GI50 [47]: 18.5 µM (inactive)
- GI50 [48]: 16.4 µM (inactive)
- GI50 [49]: 17.5 µM (inactive)
- GI50 [58]: 16.4 µM (inactive)
- GI50 [50]: 61.1 µM (inactive)
- GI50 [51]: 15.7 µM (inactive)
- GI50 [52]: 19.5 µM (inactive)
- GI50 [53]: 16.3 µM (inactive)
- GI50 [54]: 23.7 µM (inactive)

From ChEMBL document CHEMBL1201862, “PubChem BioAssay data set” (2004)
